From patent US5272143A, “6-oxoazepinoindole compounds, and pharmaceutical compositions containing them” (Kali-Chemie Pharma GmbH, priority 1991, dated 1993)
Counter-ions that a name gives are not always drawn.

Each compound was assayed on 5-HT1-like receptors (assay: Serotonin-agonistic contractions in segments of the isolated basilar artery of the pig (in vitro antimigraine activity)). Details: isolated basilar artery.
Type: cell-based
From the text: 3. Investigation of Properties Indicating Antimigraine Activity of Test Substance in vitro. Migraine pains are associated with excessive dilation of the cranial vascular system. […] This property of the test substances can be used as a basis for predicting anti-migraine activity. The serotoninagonistic activity of the substances on 5-HT1 -like receptors can be determined in vitro in isolated organ strips from the basilar artery of a pig. […] Such a contraction is also produced by the test substances and is a good index of the antimigraine activity of the substances. The tests are carried out according to the method described by van Charldorp et al. (Naunyn-Schmiedeb. Arch. Pharmacol. supp. to volume 341, R89, 1990 and Eur. J. Pharmacol. 183, 1106-1107, 1990). Experimental description of the in vitro determination of the effect inducing serotonin-agonistic contractions in segments of the isolated basilar artery of the pig. For the experiment, helical segments of the basilar artery of pigs were used which were isolated from pig brains supplied by a slaughterhouse. Each strip was fixed in an organ bath consisting of 10 ml of a modified Tyrode solution such that the tissue was under a tension of 10 mN. […] The solution was modified by adding 10^-8 mol/l of indomethacin, 10^-7 mol/l of atropine and 10^-7 mol/l of propanolol and adjusted to pH=7.4. The bath was aerated with a mixture of 95% O2 and 5% CO2. After an equilibration phase of 1 hour a contraction of the tissue was produced twice, in each case by addition of serotonin at a concentration of 10^-5 mol/l and the preparation was subsequently washed out. The contraction effect was then measured with increasing serotonin concentration and a cumulative concentration effect curve for serotonin was drawn up. A cumulative concentration effect curve was drawn up for the test substance on the same preparation (after washing out again). In the following Table B, the maximum contraction caused by the test substances in relationship to the maximum contraction produced by serotonin, and the negative logarithm of that concentration of the test substance which produces 50% of the maximum contraction which can be produced by this test substance (=pD2), and the relative potency calculated as pD2 of the test substance relative to the pD2 of serotonin determined on the same piece of artery are given.

Row | Compound | action on 5-HT1-like receptors in the basilar artery (contraction)
1 | NCCc1c[nH]c2ccc(O)cc12 [Serotonin, reference compound] | concentration -dependent contraction

Same assay, conditions: porcine basilar artery, in vitro

Row | Compound | Maximum Contraction Produced by Test Substance Relative to Maximum Contraction Produced by Serotonin = 1 | relative potency calculated as pD2 of the test substance relative to the pD2 of serotonin determined on the same piece of artery
2 | NC[C@@H]1CNC(=O)c2cccc3[nH]cc1c23 [Example 1a, 3R(+)-3-Aminomethyl-3,4,5,6-tetrahydro-6-oxo-1H-azepino[5,4,3-cd]indole] | 1.0 | 0.172
3 | CNC[C@@H]1CNC(=O)c2cccc3[nH]cc1c23 [Example 4a, 3R(+)-3-methylaminomethyl-3,4,5,6-tetrahydro-6-oxo-1H-azepino[5,4,3-cd]indole hydrochloride] | 0.6 | 0.354
4 | COCN1CC(CN)c2c[nH]c3cccc(c23)C1=O (centres unmarked) [Example 12, 3-aminomethyl-5-methoxymethyl-3,4,5,6-tetrahydro-6-oxo-1H-azepino[5,4,3-cd]indole] | 0.7 | 0.050

Same assay, conditions: porcine basilar artery, in vitro; concentrations in mol/l

Row | Compound | pD2 = neg. log of Concentration Which Produces 50% of Maximum Contraction
5 | NC[C@@H]1CNC(=O)c2cccc3[nH]cc1c23 [Example 1a, 3R(+)-3-Aminomethyl-3,4,5,6-tetrahydro-6-oxo-1H-azepino[5,4,3-cd]indole] | 6.7
6 | CNC[C@@H]1CNC(=O)c2cccc3[nH]cc1c23 [Example 4a, 3R(+)-3-methylaminomethyl-3,4,5,6-tetrahydro-6-oxo-1H-azepino[5,4,3-cd]indole hydrochloride] | 7.0
7 | COCN1CC(CN)c2c[nH]c3cccc(c23)C1=O (centres unmarked) [Example 12, 3-aminomethyl-5-methoxymethyl-3,4,5,6-tetrahydro-6-oxo-1H-azepino[5,4,3-cd]indole] | 6.0

These compounds were tested on stomach motility (assay: Determination of effect on stomach motility in anaesthetised rats). Details: ip; rat, 100 μmole/kg i.p.; read-out: Maximum Amplitude Increase (increase in % of control amplitude).
Type: in vivo, rats of the SIV 50 strain
Method: 2. Determination of effect on stomach motility in anaesthetised rats.
For the tests, groups of 5-6 fasting rats of the SIV 50 strain having a body weight of 220-290 g were used in each test which had been anaesthetised with a ketamine/xylazine mixture. The animals received an initial dose of 1 ml/kg of a solution of 50 mg/ml of ketamine and 10 mg/ml of xylazine administered i.p., and the anaesthetic level was maintained by a continuous intraperitoneal infusion of the same solution at an infusion rate of 1 ml/kg/h. The animals were tracheotomised and laparotomised. After applying a pylorus ligature, a stomach tube was inserted into the stomach and connected at the other end by means of a three-way tap to a calibrated pressure transducer (Statham Element P 23 ID). A corresponding tube was inserted rectally 8-9 cm into the colon and likewise connected in the same manner to a calibrated pressure transducer of the same type. The stomachs of the animals were then filled with 2 ml of water via the tube. After a stabilisation phase of 40 min, the pressure variations in the stomach and colon were measured over a test period of 2 hours and 20 minutes, and the amplitudes produced by the phasic gastric motility were recorded by means of a Watanabe multirecorder (MC 6621). The geometric mean values of the amplitudes during the first 20 min were determined for the individual animals and used as control amplitude values. After the first 20 min, the test substances were administered i.p. The maximum increase in amplitude (=mean value of the 20 minute period in which the highest increase in amplitude occurs) caused by the test substances was determined in % increase of the control amplitude values determined before administration of the test substances, and the mean value for the animal group is given in the following Table A. In addition, the maximum increase in the mean gastric tone caused by the test substances during the test period compared with the mean gastric tone existing before administration of the test substances was recorded. This increase in gastric tone is given in Table A in cm of H2 O (mean value of the animal group). In the colon, the test substances cause amplitude damping.

Row | Compound | change in vivo at 100 µmol/kg
8 | O=C1NCC(CNCc2ccccc2)c2c[nH]c3cccc1c23 (centres unmarked) [Example 2, 3-Benzylaminomethyl-3,4,5,6-tetrahydro-6-oxo-1H-azepino[5,4,3-cd]indole] | 239%
9 | CCN(CC)CC1CNC(=O)c2cccc3[nH]cc1c23 (centres unmarked) [Example 5b, 3-Diethylaminomethyl-3,4,5,6-tetrahydro-6-oxo-1H-azepino[5,4,3-cd]indole] | 449%
10 | CC(C)NCC1CNC(=O)c2cccc3[nH]cc1c23 (centres unmarked) [Example 6, 3-Isopropylaminomethyl-3,4,5,6-tetrahydro-6-oxo-1H-azepino[5,4,3-cd]indole] | 609%
11 | NCCC1Cc2c[nH]c3cccc(c23)C(=O)N1 (centres unmarked) [Example 8, 4-(2-Aminoethyl)-3,4,5,6-tetrahydro-6-oxo-1H-azepino[5,4,3-cd]indole] | 569%
12 | NCC1CNC(=O)c2cccc3c2c1cn3Cc1ccccc1 (centres unmarked) [Example 10, 1-Benzyl-3-aminomethyl-3,4,5,6-tetrahydro-6-oxo-1H-azepino[5,4,3-cd]indole] | 663%
13 | NCC1CNC(=O)c2cccc3c2c1cn3CCCc1ccccc1 (centres unmarked) [Example 13, 3-Aminomethyl-1-(3-phenylpropyl)-3,4,5,6-tetrahydro-6-oxo-1H-azepino[5,4,3-cd]indole] | 332%
14 | CN(C)C=NCC1CNC(=O)c2cccc3[nH]cc1c23 (centres unmarked) [Example 15, 3-(Dimethylaminomethylideneaminomethyl)-3,4,5,6-tetrahydro-6-oxo-1H-azepino[5,4,3-cd]indole] | 308%
15 | O=C1NC(CN2CCN(c3ccccc3)CC2)Cc2c[nH]c3cccc1c23 (centres unmarked) [Example 17, 4-(4-Phenylpiperazin-1-ylmethyl)-3,4,5,6-tetrahydro-6-oxo-1H-azepino[5,4,3-cd]indole] | 293%
16 | Cc1ccc(CNCC2CNC(=O)c3cccc4[nH]cc2c34)cc1 (centres unmarked) [Example 24] | 195%
17 | CN1CCN(CC2Cc3c[nH]c4cccc(c34)C(=O)N2)CC1 (centres unmarked) [Example 25] | 206%

Same assay, conditions: rat, 100 μmole/kg i.p.

Row | Compound | Gastric Tone Increase
18 | CCN(CC)CC1CNC(=O)c2cccc3[nH]cc1c23 (centres unmarked) [Example 5b, 3-Diethylaminomethyl-3,4,5,6-tetrahydro-6-oxo-1H-azepino[5,4,3-cd]indole] | 3.8 cm H2O
19 | CC(C)NCC1CNC(=O)c2cccc3[nH]cc1c23 (centres unmarked) [Example 6, 3-Isopropylaminomethyl-3,4,5,6-tetrahydro-6-oxo-1H-azepino[5,4,3-cd]indole] | 15.4 cm H2O
20 | NCC1CNC(=O)c2cccc3c2c1cn3Cc1ccccc1 (centres unmarked) [Example 10, 1-Benzyl-3-aminomethyl-3,4,5,6-tetrahydro-6-oxo-1H-azepino[5,4,3-cd]indole] | 10.5 cm H2O
21 | NCC1CNC(=O)c2cccc3c2c1cn3CCCc1ccccc1 (centres unmarked) [Example 13, 3-Aminomethyl-1-(3-phenylpropyl)-3,4,5,6-tetrahydro-6-oxo-1H-azepino[5,4,3-cd]indole] | 7.2 cm H2O
22 | CN(C)C=NCC1CNC(=O)c2cccc3[nH]cc1c23 (centres unmarked) [Example 15, 3-(Dimethylaminomethylideneaminomethyl)-3,4,5,6-tetrahydro-6-oxo-1H-azepino[5,4,3-cd]indole] | 3.1 cm H2O

The compounds below were run on Mouse (assay: not given). Details: in vivo, po, 4320 min.
Set-up: species or system Male mice
Method: 1. Determination of the minimum toxic dose.
Male mice of 20-25 g weight are administered maximum doses of 300 mg/kg of the test substance p.o. The animals were carefully observed for 3 hours for symptoms of toxicity. Over a period of 72 hours after administration, all symptoms and cases of death are additionally recorded. Concomitant symptoms are likewise observed and recorded. If death or strong toxic symptoms are observed, further mice are administered increasingly lower doses until toxic symptoms no longer occur. The lowest dose which causes death or strong toxic symptoms is given in the following Table A as the minimum toxic dose. The example numbers given in Table A relate to the subsequent preparation examples.

Row | Compound | Minimum Toxic Dose
23 | O=C1NCC(CNCc2ccccc2)c2c[nH]c3cccc1c23 (centres unmarked) [Example 2, 3-Benzylaminomethyl-3,4,5,6-tetrahydro-6-oxo-1H-azepino[5,4,3-cd]indole] | > 300 mg/kg
24 | CCN(CC)CC1CNC(=O)c2cccc3[nH]cc1c23 (centres unmarked) [Example 5b, 3-Diethylaminomethyl-3,4,5,6-tetrahydro-6-oxo-1H-azepino[5,4,3-cd]indole] | > 300 mg/kg
25 | CC(C)NCC1CNC(=O)c2cccc3[nH]cc1c23 (centres unmarked) [Example 6, 3-Isopropylaminomethyl-3,4,5,6-tetrahydro-6-oxo-1H-azepino[5,4,3-cd]indole] | > 300 mg/kg
26 | NCCC1Cc2c[nH]c3cccc(c23)C(=O)N1 (centres unmarked) [Example 8, 4-(2-Aminoethyl)-3,4,5,6-tetrahydro-6-oxo-1H-azepino[5,4,3-cd]indole] | > 300 mg/kg
27 | NCC1CNC(=O)c2cccc3c2c1cn3Cc1ccccc1 (centres unmarked) [Example 10, 1-Benzyl-3-aminomethyl-3,4,5,6-tetrahydro-6-oxo-1H-azepino[5,4,3-cd]indole] | > 300 mg/kg
28 | NCC1CNC(=O)c2cccc3c2c1cn3CCCc1ccccc1 (centres unmarked) [Example 13, 3-Aminomethyl-1-(3-phenylpropyl)-3,4,5,6-tetrahydro-6-oxo-1H-azepino[5,4,3-cd]indole] | > 300 mg/kg
29 | CN(C)C=NCC1CNC(=O)c2cccc3[nH]cc1c23 (centres unmarked) [Example 15, 3-(Dimethylaminomethylideneaminomethyl)-3,4,5,6-tetrahydro-6-oxo-1H-azepino[5,4,3-cd]indole] | > 300 mg/kg
30 | O=C1NC(CN2CCN(c3ccccc3)CC2)Cc2c[nH]c3cccc1c23 (centres unmarked) [Example 17, 4-(4-Phenylpiperazin-1-ylmethyl)-3,4,5,6-tetrahydro-6-oxo-1H-azepino[5,4,3-cd]indole] | > 300 mg/kg
31 | Cc1ccc(CNCC2CNC(=O)c3cccc4[nH]cc2c34)cc1 (centres unmarked) [Example 24] | > 300 mg/kg
32 | CN1CCN(CC2Cc3c[nH]c4cccc(c34)C(=O)N2)CC1 (centres unmarked) [Example 25] | 300 mg/kg
